# Key:
# [1] = test system: chimera RXFP2-1 (extracellular domain of RXFP2, transmembrane domain of RXFP1); test: HTRF cAMP assay in HEK293T cells transiently transfected with chimera RXFP2-1; type: cell-based, human
# Source text: (§1) To further investigate the involvement of the RXFP2 extracellular and transmembrane domains in agonist activation of the receptor, two complementary chimeras were created using the RXFP1 receptor, which is not activated by the agonists of formula (I), to transiently transfect HEK293T cells and measured changes in cAMP induction using the HTRF assay.
# (§2) Chimeric receptors were generated by IN-FUSION™ (Takara Bio USA, Inc., San Jose, CA) mutagenesis using full-length human RXFP1 and RXFP2 receptor constructs. Polymerase chain reaction (PCR) was performed using PfuTurbo high-fidelity DNA polymerase (Agilent Technologies, Santa Clara, CA) and overlapping primers with at least 15 bp sequence homology within the fusion site. PCR products were digested with Dpnl restricton enzyme at 37° C. overnight, run on a 0.8% agarose gel and purified using the GENEJET™ Gel extraction kit (Thermo Scientific, Waltham, MA). The purified DNA fragments were then ligated into the BamHI and XhoI pre-digested pcDNA3.1™/Zeo(+) AmpR mammalian expression vector using the In-Fusion HD enzyme premix (Clontech, Mountain View, CA) at 50° C. for 15 minutes, and the resulting product was used to transform Stellar competent cells (Takara Bio USA, Inc., San Jose, CA). The clones were fully sequenced to confirm the correct fusion of both receptor fragments. Chimera RXFP2-1 contained the extracellular domain of RXFP2 and the transmembrane domain of RXFP1. Accordingly, chimera RXFP1-2 contained the extracellular domain of RXFP1 and the transmembrane domain of RXFP2.
# (§3) HEK293T cells were seeded in 6-well flat-bottom clear plates at 0.5 million cells/well in 2 mL/well of growth medium (DMEM, 10% FBS, 1× Pen/Strep) and allowed to attach overnight at 37° C. and 5% CO2. The next morning, cells were transfected with 2 μg of plasmid (chimeric receptors, WT RXFP2, or WT RXFP1) and 6 μl of Lipofectamine2000 (Invitrogen, Waltham, MA) in a total volume of 200 μl/well OPTI-MEM™ I (Thermo Fisher, Waltham, MA) reduced serum medium and allowed to incubate an additional 24 hours. The next day, transfected cells were seeded in 96-well flat-bottom opaque plates at 30,000 cells/well in 60 μL/well of serum-free DMEM medium and allowed to attach overnight at 37° C. at 5% CO2. The next morning, cells were treated with 1 μL/well of compound (25 μM-0.25 nM), 2 μM forskolin, or DMSO vehicle. Cells were also treated with 4 μL of positive control INSL3 (100-0.01 nM), Relaxin2 (100-10 nM), or vehicle (serum-free DMEM+IBMX). Plates were incubated for 1 hour at 37° C. and 5% CO2, after which kit cAMP-d2 and anti-cAMP antibody were added as previously described. Cells were incubated for 1 hour at room temperature, and then the signal was read on a CLARIOstar plate reader (BMG Labtech, Germany).
# [2] = test system: chimera RXFP1-2 (extracellular domain of RXFP1, transmembrane domain of RXFP2); test: HTRF cAMP assay in HEK293T cells transiently transfected with chimera RXFP1-2; type: cell-based, human
# Source text: as §1, §2, §3
# [3] = target: T1, chimera RXFP1-2 (extracellular domain of RXFP1, transmembrane domain of RXFP2) (Homo sapiens, UniProt Q8WXD0); test: as above; type: cell-based; settings: RXFP1-2 chimera
# T1 construct: other: RXFP1-2 chimera; Emax; normalized to 2 μM forskolin cAMP response as 100% activity; fused on or other part: FLAG tag; The RXFP1 extracellular domain is the N-terminal part of the chimera and the RXFP2 transmembrane domain is the C-terminal part; Q9HBX9 (Relaxin receptor 1)
# Source text: as §1, §2, §3
# WT RXFP2 = target: T2, WT RXFP2 (Homo sapiens, UniProt Q8WXD0); test: HTRF cAMP assay in HEK293T cells transiently transfected with WT RXFP2; type: cell-based
# T2 construct: using full-length human RXFP1 and RXFP2 receptor constructs; FLAG; expressed in transfected cells; host or cells: HEK293T (transient, Lipofectamine2000)
# Source text: as §1, §2, §3
# [4] = HEK-293T, normalized to 2 μM forskolin cAMP response as 100% activity
# T2 sequence (Q8WXD0 whole entry): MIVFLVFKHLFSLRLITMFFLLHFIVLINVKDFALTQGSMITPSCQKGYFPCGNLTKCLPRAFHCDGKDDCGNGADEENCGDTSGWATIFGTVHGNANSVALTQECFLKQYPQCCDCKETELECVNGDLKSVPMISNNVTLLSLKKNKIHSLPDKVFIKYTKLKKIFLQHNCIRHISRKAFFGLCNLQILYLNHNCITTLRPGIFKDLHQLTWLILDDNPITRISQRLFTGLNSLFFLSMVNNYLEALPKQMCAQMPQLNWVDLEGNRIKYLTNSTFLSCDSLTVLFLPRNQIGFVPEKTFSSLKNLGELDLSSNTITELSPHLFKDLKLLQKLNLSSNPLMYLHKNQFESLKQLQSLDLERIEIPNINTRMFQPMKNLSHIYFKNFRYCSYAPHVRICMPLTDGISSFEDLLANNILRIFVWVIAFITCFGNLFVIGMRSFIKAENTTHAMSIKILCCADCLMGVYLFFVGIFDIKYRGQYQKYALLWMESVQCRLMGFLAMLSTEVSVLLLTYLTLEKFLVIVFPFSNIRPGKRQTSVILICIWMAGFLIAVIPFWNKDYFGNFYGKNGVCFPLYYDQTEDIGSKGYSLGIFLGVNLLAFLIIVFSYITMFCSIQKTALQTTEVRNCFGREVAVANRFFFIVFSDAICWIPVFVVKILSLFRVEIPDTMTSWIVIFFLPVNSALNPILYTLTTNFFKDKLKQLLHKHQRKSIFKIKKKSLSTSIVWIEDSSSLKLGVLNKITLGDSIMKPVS
# T1 sequence (Q8WXD0 417-754 limits assumed, change not shown): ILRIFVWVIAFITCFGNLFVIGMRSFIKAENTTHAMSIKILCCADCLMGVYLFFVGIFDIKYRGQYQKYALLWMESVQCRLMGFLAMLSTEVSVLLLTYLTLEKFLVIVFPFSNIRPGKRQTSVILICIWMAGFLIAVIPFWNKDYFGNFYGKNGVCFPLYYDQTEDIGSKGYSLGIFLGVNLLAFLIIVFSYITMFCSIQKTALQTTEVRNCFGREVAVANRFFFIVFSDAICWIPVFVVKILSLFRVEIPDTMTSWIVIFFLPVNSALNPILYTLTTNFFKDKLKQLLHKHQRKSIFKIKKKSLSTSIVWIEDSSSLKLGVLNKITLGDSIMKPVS
smiles,measurement,setting,value
"O=C1Nc2ccc(-c3cc(C(F)(F)F)cc(C(F)(F)F)c3)cc2C(=O)N2CCN(C(=O)COc3ccc(OC(F)(F)F)cc3I)C[C@@H]12 [Example 187, (S)-8-(3,5-bis(trifluoromethyl)phenyl)-2-(2-(2-iodo-4-(trifluoromethoxy)phenoxy)acetyl)-1,3,4,12a-tetrahydrobenzo[e]pyrazino[1,2-a][1,4]diazepine-6,12 (2H, 11H)-dione]",cAMP response of chimera RXFP2-1,[1],no response
same,cAMP response of chimera RXFP1-2,[2],levels comparable to WT RXFP2
same,Emax,[3]; [4],96.47 ± 0.43%
same,EC50,[3]; read-out: EC50 (μM or nM),0.016 ± 0.002 µM
same,Emax,WT RXFP2; [4],86.3 ± 3.38%
same,EC50,WT RXFP2; read-out: EC50 (μM or nM),0.012 ± 0.008 µM
